Data published in US20240240224A1, “FLUORESCENT D-TYPE AMINO ACID METABOLISM MARKER-BASED METHOD FOR DETECTING ANTIBACTERIAL DRUG SENSITIVITY TEST” (priority 2020, published 2024).
In brackets after ≈: the same amount, converted by molar mass.

Experiments:
[1] = system: S. aureus Sa23; test: BMD susceptibility test; format: cell-based, Staphylococcus aureus; conditions: unit assumed
[2] = system: E.coli 1113; test: Vitek 2 drug sensitivity test; format: cell-based, Escherichia coli; on Sensibility: key: S: Drug sensitive; R: Drug resistance
[3] = system: E. coli Ec13; test: FaAST (FDAA metabolic labeling); format: cell-based, Escherichia coli; conditions: unit assumed
Method in brief: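 Bacteria at OD600=0.05 in CAMHB mixed with antibiotic dilutions plus Cy5-DAA probe at 0.15 mM final, then incubated 2 h in the dark. Cell-wall labeling fluorescence measured by flow cytometry after PBS dilution.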

[4] = system: A. baumannii Ab19; test: BMD susceptibility test; format: cell-based, Acinetobacter baumannii; conditions: unit assumed
[5] = system: A. baumannii Ab19; test: FaAST (FDAA metabolic labeling); format: cell-based, Acinetobacter baumannii; conditions: unit assumed
Method in brief: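 Bacteria diluted to OD600=0.05 in CAMHB were exposed to an antibiotic concentration series with Cy5-DAA probe […] for 2 h in the dark. Per-sample fluorescence was read by flow cytometry after PBS dilution. MIC was taken from the antibiotic concentration–fluorescence curve.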

[6] = system: alveolar lavage fluid sample 0130, A. baumannii; test: BMD susceptibility test of patient alveolar lavage fluid; format: cell-based, Acinetobacter baumannii; conditions: unit assumed
Text: (§1) The results of antimicrobial susceptibility test of alveolar lavage fluid of seven patients using FDAA and BMD methods are shown in the following table. The drug-resistant bacteria are shown in bold.

[7] = system: alveolar lavage fluid sample 0206, A. baumannii; test: as above; format: cell-based, Acinetobacter baumannii; conditions: unit assumed
Text: as §1

[8] = system: alveolar lavage fluid sample 0219, A. baumannii; test: as above; format: cell-based, Acinetobacter baumannii; conditions: unit assumed
Text: as §1

[9] = system: Acinetobacter baumannii ABA19; test: FaAST with DAA-Tetra probe; format: cell-based; conditions: unit assumed
[10] = system: Enterococcus faecium EFM26; test: FaAST with DAA-Tetra probe; format: cell-based; conditions: unit assumed
[11] = system: Pseudomonas aeruginosa PAE2; test: FaAST with DAA-Tetra probe; format: cell-based; conditions: unit assumed
[12] = system: Pseudomonas aeruginosa PAE2; test: VITEK drug sensitivity test; format: cell-based; conditions: unit assumed
[13] = system: Acinetobacter baumannii ABA19; test: VITEK drug sensitivity test; format: cell-based; conditions: unit assumed
[14] = system: Acinetobacter baumannii ABA16; test: VITEK drug sensitivity test; format: cell-based; conditions: unit assumed

With `C[C@H]1COc2c(N3CCN(C)CC3)c(F)cc3c(=O)c(C(=O)O)cn1c23` [Levofloxacin, levofloxacin] the BMD (MIC) [1] was 1 µg/mL, the MIC, Vitek 2 [2] was > 8 µg/mL and the Sensibility [2] was “R”. For the same compound, the FaAST (MIC) [3] was 4 µg/mL, the BMD (MIC) [4] was ≤ 0.25 µg/mL and the FaAST (MIC) [5] was 0.5 µg/mL. For the same compound, the BMD (MIC) [6] was 64 µg/mL, the BMD (MIC) [7] was 32 µg/mL and the BMD (MIC) [8] was 32 µg/mL. The MIC, FaAST [9] was 0.5 µg/mL (≈ 1.38 µM), the MIC, FaAST [10] was 64 µg/mL (≈ 177 µM) and the MIC, FaAST [11] was 0.5 µg/mL (≈ 1.38 µM). For the same compound, the MIC, VITEK [12] was 0.5 µg/mL (≈ 1.38 µM), the MIC, VITEK [13] was ≤ 0.25 µg/mL and the MIC, VITEK [14] was 16 µg/mL (≈ 44.3 µM).
